As a reminder, the melting point is the temperature, or range, at which the solid turns liquid.

Results on 63 compounds are retold here after a melting point compilation (Tetko et al.; mined from patent text by program, amines drawn as free bases though some values may be those of a salt).

In the case of `CS(=O)(=O)c1ccc(-n2nc(C(F)(F)F)cc2-c2ccc(-c3cscn3)cc2)cc1F`, the melting point lay within 125 to 127 °C.
In the case of `COc1cc(-c2nc(-c3ccc(N(C)C)cc3)c(C)s2)cc(OC)c1OC(C)=O` it was 247 to 249 °C; in that of `O=C(O)C(=O)c1ccc(OCCCc2ccccc2)cc1`, 58 to 59 °C; in that of `CCc1ccc(NC(=O)c2ccccc2CN2C(=O)C3(COc4cc5c(cc43)CCO5)c3ccccc32)cc1` (stereo not drawn), above 230 °C.
The value for `CCCCCCCCOc1cc(-c2ccccc2)c(OCC(=O)O)c(-c2ccccc2)c1` was 82 to 84 °C.
The value for `CCCC(=O)NCC1CCc2c(OC)ccc3cccc1c23` (stereo not drawn) was 100 °C.
`c1ccc(-c2nnc3ccc(N4CCOCC4)nn23)cc1` displayed a melting point of 266 to 268 °C.
In the case of `NS(=O)(=O)c1ccc(-n2nc(CNC(=O)NO)cc2-c2ccc(Cl)cc2)cc1` it was 216 to 218 °C; in that of `COc1ccc(C(O)CCCC(=O)Nc2ccccc2)cc1` (stereo not drawn), 96 to 96.5 °C.
`CCOC(=O)NN=C(c1cccnc1)C1COCOC1`: the melting point came to 132 °C.
In turn, `Cc1ccc(-c2cn(C)c(-c3nc(-c4ccc(C)s4)cn3C)n2)s1` had a melting point of 220 to 228 °C.
With `COc1cc2c(cc1C(C)=O)CCCC2C` (stereo not drawn), the melting point was in the range of 48 to 50 °C.
In the case of `O=[N+]([O-])c1cc(F)cc2c1OCC2` it was 113 to 114 °C; in that of `O=c1[nH]c(=O)n(Cc2ccc(Cl)cc2)c2ccccc12`, 217 to 218 °C; in that of `O=c1c2cccnc2[nH]c2ccnn12`, above 300 °C.
The value for `O=C(Cc1ccccc1)c1cccnc1` was 61 to 62 °C; that for `Cc1cc(=O)c(-c2ccc(Cl)c(Cl)c2)c(-c2ccccc2)o1` was 104 °C; that for `Cc1nn(C)c(C2=NCCN2)c1[N+](=O)[O-]` was 143 to 145 °C.
In the case of `O=C1CCCc2nc(N3CCNCC3)ncc2N1` it was 175 to 178 °C; in that of `COc1cccc([C@@]23CCC[C@@H]2C(=O)N(C)CCC3)c1` (relative stereo), 96 to 99 °C.
Compound `O=C1NC(=O)C(c2c[nH]c3cc(F)ccc23)=C1C1=COc2ccccc2O1` had a melting point of 203 °C.
The value for `CN(C)C=NS(=O)(=O)c1cc(Br)cc(Br)c1` was 157 to 158 °C.
The value for `Cc1cccc(N2CCN(Cc3ccc4c(c3)NCCN4)CC2)c1` was 135 to 136 °C; that for `O=c1[nH]c2ncccc2c(=O)n1CCCCCCn1c(=O)[nH]c2ncccc2c1=O` was 324 to 328 °C; that for `CCCCOP(=O)(CCCCC1(C(=O)NCC(F)(F)F)c2ccccc2-c2ccccc21)OCCCC` was 71 to 74 °C.
The value for `CCc1cn2ccccc2c1S(=O)(=O)c1ccc(OCCCBr)cc1` was 136 °C.
The compound `COc1ccc(N)c2c1oc1ccccc12` had a melting point of 167 to 169 °C.
The value for `CCCCCS(=O)c1cccc(-c2nc(=O)c3ccccc3s2)n1` (stereo not drawn) was 146 to 147 °C.
On to `CCCCOc1c(CNC(=O)OC(C)(C)C)n(CC(C)(C)C)c(=O)c2ccc(CO)cc12`, for which the melting point was in the range of 92 to 93 °C.
`COc1ccc(CCN2CCC(n3ccc4ccc(CNC(C)=O)cc43)CC2)cc1` yielded a melting point of 101 to 102 °C.
The value for `N#CCc1ccc(C(=O)c2ccc(Cl)cc2)[nH]1` was 203 to 205 °C.
The value for `COc1ccc(C(=O)NC2N=C(c3ccccc3F)c3ccccc3NC2=O)cc1` (racemic) was 231 to 233 °C; that for `CN(CC(=O)c1ccc(N(C)C)cc1)Cc1cc2c(=O)c(C(=O)NCc3ccc(Cl)cc3)cn(C)c2s1` was 162 °C; that for `CC(C)CNC(=O)C(C)NC(=O)C(C)NC(=O)C(C)NC(=O)OCc1ccccc1` (stereo not drawn) was 260 to 262 °C.
The value for `CC1(C)C2CC[C@]1(C)C(=O)C(C(=O)Nc1ccc(Cl)c(Cl)c1)C2=O` (stereo partly drawn) was 88 to 90 °C; that for `CCN(CC)CC1CN=C(NC(=O)Nc2ccccc2)O1` (stereo not drawn) was 148 °C; that for `NCCCCc1cccc(C2=NNC(=O)CC2)c1` was 128 to 130 °C.
Turning to `Cc1ccc(-c2cc3c(s2)CCCC(C(=O)O)=C3)cc1`, the melting point lay in the range of 250 to 251 °C.
`CCCCCCCCCCCCCCCCCCc1nc2ncccc2o1` yielded a melting point of 84 to 85 °C.
The value for `Cc1cc(C#N)cc(C(=O)Nc2cccc(Cl)n2)n1` was 222 °C.
In the case of `CCOc1cc([C@@H](CS(C)(=O)=O)N2C(=O)c3cccc(NC(=O)COC)c3C2=O)ccc1OC` it was 151 to 153 °C.
For `CCCc1c(OCc2ccc(C(=O)NC(C)CCCc3cccnc3)cc2)ccc(C(C)=O)c1O` (stereo not drawn), the melting point is 117 to 120 °C.
The value for `Cc1cn(C2CC(O)C(COC(c3ccccc3)(c3ccccc3)c3ccccc3)O2)c(=O)[nH]c1=O` (stereo not drawn) was 107 to 110 °C.
In turn, `COc1ccc(Br)c(COc2ccc3ccc(OC)cc3c2Cl)c1` showed a melting point of 126 to 127 °C.
In the case of `CN(C(=O)OC(C)(C)C)c1cc(Oc2ccc(C(F)(F)F)cc2)ccc1[N+](=O)[O-]` it was 92 to 93 °C.
In the case of `COC(=O)CNC(=O)c1ccc(-c2ccccc2)cc1` it was 127 to 128 °C.
In the case of `Cn1ncc(C(=O)N2CC(F)C2)c1C(=O)Nc1ccn2nc(-c3ccccc3)nc2c1` it was 259 to 262 °C.
`Cc1cccnc1NC(=O)C(C)(C)C` gave a melting point of 90 to 92 °C.
The value for `N=C(N)NCCc1ccc(OCCC(c2ccc(Cl)cc2)(c2ccc(Cl)cc2)c2ccc(Cl)cc2)cc1` was 146 to 150 °C.
In the case of `SCC1SC(CS)SC(CS)S1` (stereo not drawn) it was 42 to 46 °C; in that of `O=C1CC(c2cccc3c2OCO3)=Nc2ccc(N3CCCC3)cc21`, 330 to 332 °C; in that of `CCOC(=O)c1cc2c(F)ccc(Cl)c2s1`, 63 to 64 °C.
The value for `CCOC(=O)C1=C(NC(=O)Nc2ccc([N+](=O)[O-])c(C(=O)OCC)c2)CCC1` was 152 to 155 °C.
Turning to `CC1=C(c2cccc(C(F)(F)F)c2)n2ncc3c(=O)[nH]c(=S)n(c32)C1`, the melting point lay within 269 to 271 °C.
The compound `C=CCc1cc2c(C)c(Br)c(=O)oc2c(C)c1O` gave a melting point of 189 to 190 °C.
The value for `COc1cc(OC)cc(S(=O)(=O)n2c(CCCC(=O)O)cc3nc(Cl)ccc32)c1` was 136 to 138 °C.
In the case of `N#CC(Cl)Cc1ccc(Cl)cc1C(=O)c1ccccc1Cl` (stereo not drawn) it was 102 to 103 °C; in that of `CCc1cn(C2CC(O)C(COC(c3ccccc3)(c3ccccc3)c3ccccc3)O2)c(=O)[nH]c1=O` (stereo not drawn), 168 to 172 °C; in that of `O=C(OC1C2CN(Cc3ccccc3)CC1CN(C(=O)c1ccc(Cl)cc1)C2)c1ccccc1` (stereo not drawn), 165 °C.
Regarding `CCOC(=O)c1cn(C2CC2)c2nc(SCC)ncc2c1=O`, the melting point stood at 138 °C.
The value for `O=C(c1ccc([N+](=O)[O-])cc1)N1Cc2ccccc2Sc2ccccc21` was 147 to 149 °C; that for `CCc1nccn1-c1ccccc1C(=O)Nc1ccc(C(=O)N2CCC(F)(F)/C(=C\C(=O)NC3CC3)c3ccccc32)cc1` was above 260 °C.
In the case of `CCNC(=O)N(C)C(=O)Nc1ccccc1` it was 80.5 to 81.5 °C.
